Tests used:
[1] = target: T1, wild-type (WT) EGFR (Homo sapiens, UniProt P00533); test: Inhibition of wild-type EGFR by Compound A; conditions: at clinically relevant efficacious concentrations
[2] = test system: EGFR mutant (L858R, ex19del and T790M) cancer models; test: EGFR mutant cancer models (in vitro and in vivo), Compound A
[3] = test system: xenograft models; test: Xenograft models, Compound A; assay type: in vivo
[4] = test system: EGFR-mutant NSCLC; test: Previous study of EGF816 at 100 mg and 150 mg daily; assay type: in vivo, human; conditions: 100 mg daily compared with 150 mg daily
[5] = test system: EGFR mutant NSCLC cell lines HCC4006, HCC827, PC9, MGH707; test: Short-term viability assay (CellTiter-Glo, 5 days); assay type: cell-based
Description: FIG. 1A and FIG. 1B: Dose response curves in EGFR mutant NSCLC cell lines (FIG. 1A: HCC4006 and HCC827 cell lines. FIG. 1B: PC9 and MGH707 cell lines). for Compound B in the presence of DMSO (curves at the top of Figures) or 300nM EGF816 (“Cmpd A”-curves at the bottom of Figures). % Activity is a measure of cell number as read out by cell-titer glo. 0 represents the CTG value at Day 0 and 100 represents the value of untreated growth at day 5.
The potential efficacy of adding a MAPK pathway inhibitor such as Compound B to a third-generation EGFR tyrosine kinase inhibitor such as EGF816 in EGFR mutant NSCLC was assessed as follows. A panel of EGFR mutant NSCLC cell lines was treated with a fixed dose (300 nM) of
EGF816 (“Compound A”) or DMSO in combination with Compound B across a 10-dose range for 5 days.
PC9, HCC827, HCC4006, NCI-H1975 and MGH707 are all EGFR mutant NSCLC cell lines sensitive to EGF816. PC9, HCC827, HCC4006 and NCI-H1975 were obtained from the cancer cell line encyclopedia (CCLE) database. MGH707 were obtained from Massachusetts General Hospital. All cell lines were maintained in RMPI media supplemented with 10% fetal bovine serum.
Compound A (EGF816) and Compound B were all re-suspended in DMSO at a concentration of 10 mM for a stock solution and further diluted for the experiments as indicated.
The following EGFR mutant (EGFR mt) NSCLC cell lines were plated at the following densities: HCC827 (exon 19 deletion, or ex19del for short) (500/well), HCC4006 (ex19del) (500/well), PC9 (ex19del)(500/well), and MGH707 parental (1000/well) into white 384-well plates (#3707, Corning, Oneonta, N.Y., USA) and stored in an incubator overnight at 37° C., 95% relative humidity, and 5% CO2. Compounds were serial diluted (1:3 dilution) in DMSO in an acoustic plate (#P-05525, Labcyte, San Jose, Calif., USA) using a Biomek liquid handler (Beckman, Indianapolis, Ind., USA). Compound A was dispensed into the first row of a Labcyte P-05525 source plate. The compound plates were then used to deliver combinations to assay plates using an acoustic dispenser (Echo-555, Labcyte, San Jose, Calif., USA). Each dispense was 50 nL which achieved a 1:1000 dilution (ie. 50 nL dispense of a 10 mM compound becomes 10 uM in 50 uL of cell solution). The combination treatment included a second dispense of 50 nL of Compound A to achieve a final concentration of 0.3 uM. Upon completion of dosing each assay plate was returned to an incubator (37° C., 95% relative humidity, and 5% CO2). 25 uL/well of CellTiter-Glo One Solution cell viability reagent (#G8462, Promega, Madison, Wis., USA) was added to an untreated plate of each cell line using a bulk dispenser (EL406, Biotek, Winooski, Vt., USA) and after 20 minutes of incubation at room temperature, the plates were read on a microplate reader (Envision, Perkin Elmer, Hopkington, Mass., USA). […] After 5 days of incubation, the assay plates are read using the same CellTiter-Glo assay reagent and read on the Envision microplate reader.

[6] = test system: EGFR mutant NSCLC cell lines HCC4006, HCC827, PC9, MGH707; test: Long-term viability assay (confluence, 14 days); assay type: cell-based
Description: FIG. 2A and FIG. 2B: Dose response of Compound B (“Cmpd B”) in EGFR mutant NSCLC lines in combination with Compound A (EGF816) (“Cmpd A”) (300 nM) (FIG. 2A: HCC4006 and HCC827 cell lines. FIG. 2B: PC9 and MGH707 cell lines). Cells were treated with fresh drug and imaged for confluence measurement twice per week for two weeks. Cell confluence was used as a surrogate for cell number. It is shown that a Raf-inhibitor in combination with EGF816 slows drug-tolerant cell outgrowth.
Combinations of Compound A and Compound B were further examined in long-term drug combination growth assays. The same EGFR mutant NSCLC cell lines as were used in Example 1 above were treated with EGF816 alone or EGF816 in combination with Compound B across a 5-dose range for 14 days as follows.
PC9 (6000/well), HCC827 (4000/well), HCC4006 (5000/well), and MGH707 (5000/well) cells were plated into 96-well plates and the following day treated with EGF816 (300 nM) +either DMSO or a range of doses of either Compound B (0.03, 0.1, 0.3, 1 and 3 uM) for two weeks. Drug was refreshed twice per week. Cell confluence was used as a surrogate for cell number and was measured by an incucyte zoom at t=0, 4, 7, 10 and 14 days treatment.

[7] = test system: EGFR activating and acquired resistance mutants (L858R, ex19del and T790M); conditions: cited from earlier work
[8] = target: T1, wild-type (WT) EGFR; conditions: cited from earlier work
[9] = test system: advanced non-small cell lung cancer (NSCLC) harboring T790M; conditions: cited from earlier work
[10] = target: BRAF kinase (Homo sapiens, UniProt P15056); test: BRAF kinase inhibition; assay type: biochemical
Sequence of BRAF kinase (P15056 whole entry): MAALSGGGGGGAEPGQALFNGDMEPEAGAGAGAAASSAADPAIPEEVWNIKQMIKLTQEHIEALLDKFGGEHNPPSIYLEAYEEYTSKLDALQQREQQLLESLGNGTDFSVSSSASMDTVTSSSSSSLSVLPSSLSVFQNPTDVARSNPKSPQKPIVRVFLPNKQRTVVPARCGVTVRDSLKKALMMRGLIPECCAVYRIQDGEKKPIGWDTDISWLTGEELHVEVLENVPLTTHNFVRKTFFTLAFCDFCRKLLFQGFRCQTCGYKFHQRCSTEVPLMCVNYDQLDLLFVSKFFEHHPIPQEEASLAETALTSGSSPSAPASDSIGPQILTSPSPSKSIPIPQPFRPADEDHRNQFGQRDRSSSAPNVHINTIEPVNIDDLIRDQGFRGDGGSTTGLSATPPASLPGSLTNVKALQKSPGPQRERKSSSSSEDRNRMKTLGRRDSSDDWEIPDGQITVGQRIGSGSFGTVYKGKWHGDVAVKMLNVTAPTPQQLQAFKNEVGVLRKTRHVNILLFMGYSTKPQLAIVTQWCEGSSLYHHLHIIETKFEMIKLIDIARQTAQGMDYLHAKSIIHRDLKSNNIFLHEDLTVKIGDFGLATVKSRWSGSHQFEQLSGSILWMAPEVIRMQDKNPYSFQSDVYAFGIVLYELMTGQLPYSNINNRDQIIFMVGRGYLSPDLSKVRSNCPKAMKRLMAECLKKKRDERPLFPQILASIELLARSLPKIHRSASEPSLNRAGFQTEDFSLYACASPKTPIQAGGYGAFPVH

[11] = test system: 456 kinases; test: Kinase binding selectivity panel; conditions: out of 456 kinases tested
[12] = Anti-proliferative activity in cancer cell lines with MAPK-activating mutations; assay type: cell-based; conditions: Homo sapiens; range over A-375, A-375 with BRAFi/MEKi resistance alleles, MEL-JUSO, IPC-298, Calu-6; read-out: IC50, inhibition of proliferation
[13] = test system: cell lines that have wild-type BRAF and RAS; test: Anti-proliferative activity in wild-type BRAF and RAS cell lines; assay type: cell-based; conditions: Homo sapiens, read-out: IC50, inhibition of proliferation
[14] = test system: Calu-6 (KRAS Q61K), NCI-H358 (KRAS G12C), Hey-A8 (KRAS G12D, BRAF G464E), SK-MEL-30 xenografts; test: In vivo tumor xenografts, Compound B
[15] = test system: CYP3A4/5; test: CYP3A4/5 inhibition; assay type: in vitro ADME

T1 sequence (P00533 25-1210): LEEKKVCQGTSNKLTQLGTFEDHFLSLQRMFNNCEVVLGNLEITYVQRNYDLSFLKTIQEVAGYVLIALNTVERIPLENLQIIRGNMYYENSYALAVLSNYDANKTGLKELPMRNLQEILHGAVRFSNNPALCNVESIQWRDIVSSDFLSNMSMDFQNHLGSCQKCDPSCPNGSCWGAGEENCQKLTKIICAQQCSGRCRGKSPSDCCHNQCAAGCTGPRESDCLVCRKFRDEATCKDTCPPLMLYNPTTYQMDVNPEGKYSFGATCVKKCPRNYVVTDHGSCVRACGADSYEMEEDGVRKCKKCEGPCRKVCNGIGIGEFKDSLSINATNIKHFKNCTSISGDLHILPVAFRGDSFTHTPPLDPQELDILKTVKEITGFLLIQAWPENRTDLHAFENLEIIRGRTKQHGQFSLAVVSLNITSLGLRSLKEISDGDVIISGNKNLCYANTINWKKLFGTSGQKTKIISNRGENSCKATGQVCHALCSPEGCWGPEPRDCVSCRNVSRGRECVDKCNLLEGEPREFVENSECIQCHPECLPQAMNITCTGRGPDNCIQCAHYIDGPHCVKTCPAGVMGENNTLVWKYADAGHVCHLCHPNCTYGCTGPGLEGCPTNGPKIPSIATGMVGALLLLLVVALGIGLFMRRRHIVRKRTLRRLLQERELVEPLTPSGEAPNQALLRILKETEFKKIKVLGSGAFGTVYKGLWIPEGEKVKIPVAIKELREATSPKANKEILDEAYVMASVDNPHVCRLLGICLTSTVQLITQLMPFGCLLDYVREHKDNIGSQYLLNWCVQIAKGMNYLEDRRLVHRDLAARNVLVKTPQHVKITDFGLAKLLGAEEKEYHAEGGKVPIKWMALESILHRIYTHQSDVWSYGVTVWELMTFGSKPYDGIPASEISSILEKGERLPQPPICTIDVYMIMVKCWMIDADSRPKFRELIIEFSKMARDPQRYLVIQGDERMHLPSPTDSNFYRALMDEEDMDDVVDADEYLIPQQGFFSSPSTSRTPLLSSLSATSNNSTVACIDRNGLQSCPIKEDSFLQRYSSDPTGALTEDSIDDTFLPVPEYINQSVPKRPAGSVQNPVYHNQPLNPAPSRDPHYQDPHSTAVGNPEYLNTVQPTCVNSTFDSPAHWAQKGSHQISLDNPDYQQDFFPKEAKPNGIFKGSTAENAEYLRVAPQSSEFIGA

**Q.** For `Cc1cc(C(=O)Nc2nc3cccc(Cl)c3n2[C@@H]2CCCCN(C(=O)/C=C/CN(C)C)C2)ccn1` [Compound A, (R,E)-N-(7-chloro-1-(1-(4-(dimethylamino)but-2-enoyl)azepan-3-yl)-1H-benzo[d]imidazol-2-yl)-2-methylisonicotinamide], which “WT EGFR inhibition” value [1] is on record?
**A.** no indication of WT EGFR inhibition

**Q.** And the “efficacy in EGFR mutant cancer models” value [2]?
**A.** significant efficacy

**Q.** What about the “tolerability / body weight” value ([3]; at efficacious doses) of the same compound?
**A.** well tolerated with no body weight loss

**Q.** And the anti-tumor efficacy ([3]; several xenograft models)?
**A.** Dose-dependent anti-tumor efficacy

**Q.** And the overall response rates [4]?
**A.** similar

**Q.** What about the “rates of rash and diarrhoea” value [4] of the same compound?
**A.** lower rates of rash and diarrhoea

**Q.** What about the “cell growth (% Activity, cell-titer glo)” value ([5]; EGF816 alone 300 nM, 5 days, all cell lines) of the same compound?
**A.** robust growth suppression

**Q.** What about the “sensitivity to single agent EGF816” value ([6]; 300 nM EGF816 alone, PC9) of the same compound?
**A.** more exquisitely sensitive

**Q.** And the “inhibition of EGFR mutants” value [7]?
**A.** selectively inhibits

**Q.** What about the “effect on wild-type EGFR” value [8] of the same compound?
**A.** sparing

**Q.** And the “antitumor activity in patients” value [9]?
**A.** durable antitumor activity

**Q.** With `Cc1ccc(NC(=O)c2ccnc(C(F)(F)F)c2)cc1-c1cc(OCCO)nc(N2CCOCC2)c1` [Compound B, N-(3-(2-(2-hydroxyethoxy)-6-morpholinopyridin-4-yl)-4-methylphenyl)-2-(trifluoromethyl)isonicotinamide] as the compound, how does the IC50 [10] read?
**A.** 0.73 nM

**Q.** What about the “number of other kinases whose binding is inhibited to a similar degree” value [11] of the same compound?
**A.** 2

**Q.** What about the IC50 [12] of the same compound?
**A.** 200 to 1200 nM

**Q.** And the IC50 [13]?
**A.** > 20000 nM

**Q.** And the tumor response ([14]; KRAS-mutant Calu-6, NCI-H358, Hey-A8 and NRAS-mutant SK-MEL-30 xenografts)?
**A.** tumor regression

**Q.** And the “dose dependence of anti-tumor effects” value ([14]; in all cases)?
**A.** dose-dependent

**Q.** What about the “tolerability / body weight” value ([14]; in all cases) of the same compound?
**A.** well tolerated with minimal body weight loss

**Q.** What about the CYP3A4/5 inhibition [15] of the same compound?
**A.** inhibitor of CYP3A4/5

**Q.** What about the “cell growth (% Activity, cell-titer glo)” value ([5]; Compound B added to 300 nM EGF816, 5 days, HCC4006, HCC827 and PC9) of the same compound?
**A.** enhanced suppression of cell growth

**Q.** And the “cell growth (% Activity, cell-titer glo)” value ([5]; Compound B added to 300 nM EGF816, 5 days, MGH707)?
**A.** less effective

**Q.** What about the “cell growth (% Activity, cell-titer glo)” value ([5]; Compound B single agent (DMSO), 5 days, all cell lines) of the same compound?
**A.** suppressed

**Q.** And the “sensitization to Compound B by EGF816” value ([5]; with 300 nM EGF816 compared to single agent, HCC4006, HCC827 and PC9)?
**A.** active at lower doses

**Q.** What about the “residual outgrowth of EGFR mutant persister cells (cell confluence)” value ([6]; Compound B 0.03-3 uM with 300 nM EGF816, 14 days) of the same compound?
**A.** markedly suppressed

**Q.** What about the “response to the combination (cell confluence)” value ([6]; Compound B with 300 nM EGF816, 14 days, MGH707) of the same compound?
**A.** most refractory

**Q.** What about the “cell number (cell confluence)” value ([6]; Compound B with 300 nM EGF816, 14 days, PC9) of the same compound?
**A.** more pronounced drop in cell number

From patent US20200237773A1, “THERAPEUTIC COMBINATION OF A THIRD-GENERATION EGFR TYROSINE KINASE INHIBITOR AND A RAF INHIBITOR” (Novartis AG, priority 2017, published 2020)
